According to patent US8324264B1, “Inhibitors of bacterial biofilms and related methods” (Sequoia Sciences, Inc., priority 2011, dated 2012):
Converted amounts (≈) assume the structure as drawn.

Tests used:
P. aeruginosa biofilms = assay: Biofilm growth assay (spreading biofilm on semi-solid agar), P. aeruginosa; assay type: cell-based; details: biofilm growth assay, overnight 37° C., vs negative controls, Tables 1-5; for IC85: Pseudomonas aeruginosa, read-out: P. aeruginosa: concentration that reduces the area of the spreading biofilm by greater than or equal to 85%
Description: (§1) “Biofilm Growth Assay” refers to an assay performed on semi-solid agar surface where the bacteria collectively move out from an inoculation point. To those skilled in the art, the act of bacteria collectively moving out from an inoculation point on a semi-solid surface may be referred to as swarming or a spreading biofilm. (Anderson, et al Microbiology, 2003, 149, 37-46; Daniels, et al. FEMS Microbiology Reviews, 2004, 28, 261-289). The procedure to perform this assay is described in detail in the Examples. This type of surface motility by bacteria has been reported in the literature by those skilled in the art. […] These references are incorporated herein by reference in their entirety.
(§2) The biofilm growth assay was carried out to measure swarming or biofilm spreading on semi-solid agar media in round plates (for example, 100×15 mm), also referred to as Petri dishes. For E. coli, the plates contained LB medium with 0.6% agar and 0.5% glucose. P. aeruginosa plates were made with M8 agar supplemented with 0.2% glucose, 100 μM CaCl2, 1 mM MgSO4, and 0.5% Casamino acids. The agar plates of this assay consisted of 0.4% to 0.7% agar (Bacto or Noble agar), although other media may also be used as described in the literature and known to those skilled in the art. Test compounds at the desired concentration were added to the cooled, autoclaved media. Portions of the media were then poured into the plates (20 mL/plate), and the plates allowed to dry at room temperature for approximately 3 to 4 hours. Alternatively, however, plates may be dried in a laminar flow hood for approximately fifteen to twenty minutes. Overnight cultures were grown in a 37° C. shaker in LB (E. coli) or TSB (P. aeruginosa). Plates were inoculated by placing 5 μL of the appropriate overnight culture in the centers of the plates. The plates then were incubated overnight at 37° C. The area of the zone of spreading bacteria was then measured and replicates are averaged. Percent inhibition was calculated as 100×(area without compound−area with compound)/(area without compound). An active compound was considered that which reduces the area of the spreading biofilm compared to negative controls by greater than or equal to 85%. The values shown in Table 1 are the concentrations of compounds (μg/ml) tested in the biofilm growth assay that reduce the area of the spreading biofilm compared to negative controls by greater than or equal to 85% unless noted differently in Table 1. A > (“greater than” symbol) as used in Table 1 is well understood to those skilled in the art as an indication that the listed concentration was not effective at this concentration.
(§3) All of the compounds shown in Tables 2, 3, 4, and 5, below, were prepared semi-synthetically from oleanolic acid, except for Compounds 2 and 3. Compound 2 was prepared from ursolic acid. Compound 3 was prepared from hederagenin, but could also be prepared from an oleanolic acid analog with a hydroxyl at C23 or C24. These compounds were tested in the spreading biofilm assay according to the methods detailed in Example I, above. The values shown in Tables 2, 3, 4, and 5 are the concentrations of compounds tested in the biofilm growth assay that reduce the area of the spreading biofilm compared to negative controls by greater than or equal to 85%.

E. coli biofilms = assay: Biofilm growth assay (spreading biofilm on semi-solid agar), E. coli; assay type: cell-based; details: biofilm growth assay, overnight 37° C., vs negative controls, Tables 1-5; for IC85: Escherichia coli, read-out: E. coli: concentration that reduces the area of the spreading biofilm by greater than or equal to 85%
Description: as §1, §2, §3

Row | Structure (SMILES) | P. aeruginosa: concentration that reduces the area of the spreading biofilm by greater than or equal to 85% (P. aeruginosa biofilms) [µg/mL] | E. coli: concentration that reduces the area of the spreading biofilm by greater than or equal to 85% (E. coli biofilms) [µg/mL] | IC85 (P. aeruginosa biofilms) [µg/mL] | IC85 (E. coli biofilms) [µg/mL]
1 | CC1(C)CC[C@]2(C(=O)O)CC[C@]3(C)C(=C(c4ccc(N5CCNCC5)cc4)CC4[C@@]5(C)Cc6c(n[nH]c6N)C(C)(C)C5CC[C@]43C)C2C1 (stereo partly drawn) [Example 50, (4aS,6aS,6bR,13aR)-12-Amino-2,2,6a,6b,9,9,13a-heptamethyl-15-(4-(piperazin-1-yl)phenyl)-2,3,4,4a,5,6,6a,6b,7,8,8a,9,11,13,13a,13b,14,15b-octadecahydro-1H-chryseno[1,2-f]indazole-4-a-carboxylic acid] | 2 | 1 | – | –
2 | CN(C)c1ccc(C2=C3[C@@H]4CC(C)(C)CC[C@]4(C(=O)O)CC[C@@]3(C)[C@]3(C)CC[C@H]4C(C)(C)c5n[nH]c(N)c5C[C@]4(C)C3C2)cc1 (stereo partly drawn) [Example 10, (4aS,6aS,6bR,13aR)-12-Amino-15-(4-(dimethylamino)phenyl)-2,2,6a,6b,9,9,13a-heptamethyl-2,3,4,4a,5,6,6a,6b,7,8,8a,9,11,13,13a,13b,14,15b-octadecahydro-1H-chryseno[1,2-f]indazole-4-a-carboxylic acid] | – | – | 0.5 (≈ 0.816 µM) | 1 (≈ 1.63 µM)
3 | CC1(C)CC[C@]2(C(=O)O)CC[C@]3(C)C(=C(c4ccoc4)CC4[C@@]5(C)Cc6c(n[nH]c6N)C(C)(C)[C@@H]5CC[C@]43C)[C@@H]2C1 (stereo partly drawn) [Example 26, (4aS,6aS,6bR,8aR,13aR,15bS)-12-Amino-15-(furan-3-yl)-2,2,6a,6b,9,9,13a-heptamethyl-2,3,4,4a,5,6,6a,6b,7,8,8a,9,11,13,13a,13b,14,15b-octadecahydro-1H-chryseno[1,2-f]indazole-4-a-carboxylic acid] | 0.25 | 1 | – | –
4 | CC1(C)CC[C@]2(C(=O)O)CC[C@]3(C)C(=C(c4ccc(N)nc4)CC4[C@@]5(C)Cc6c(n[nH]c6N)C(C)(C)[C@@H]5CC[C@]43C)[C@@H]2C1 (stereo partly drawn) [Example 41, (4aS,6aS,6bR,8aR,13aR,15bS)-12-Amino-15-(6-aminopyridin-3-yl)-2,2,6a,6b,9,9,13a-heptamethyl-2,3,4,4a,5,6,6a,6b,7,8,8a,9,11,13,13a,13b,14,15b-octadecahydro-1H-chryseno[1,2-f]indazole-4-a-carboxylic acid] | 1 | 2 | – | –
5 | C[C@@H]1CC[C@]2(C(=O)O)CC[C@]3(C)C(=CCC4[C@@]5(C)C[C@H](CO)[C@H](O)C(C)(C)C5CC[C@]43C)C2[C@H]1C (some centres unmarked) [A] | – | – | 8 (≈ 16.4 µM) | > 8
6 | CC1(C)CC[C@]2(C(=O)O)CC[C@]3(C)C(=C(c4coc(CN5CCCC5)c4)CC4[C@@]5(C)Cc6c(n[nH]c6N)C(C)(C)C5CC[C@]43C)C2C1 (stereo partly drawn) [Example 38, (4aS,6aS,6bR,13aR)-12-Amino-2,2,6a,6b,9,9,13a-heptamethyl-15-(5-(pyrrolidin-1-ylmethyl)furan-3-yl)-2,3,4,4a,5,6,6a,6b,7,8,8a,9,11,13,13a,13b,14,15b-octadecahydro-1H-chryseno[1,2-f]indazole-4-a-carboxylic acid] | 1 | 2 | – | –
7 | Cc1c([C@]23CCC(C)(C)CC2C2=CCC4[C@@]5(C)Cc6c(n[nH]c6N)C(C)(C)C5CC[C@@]4(C)[C@]2(C)CC3)n[nH]c1O (stereo partly drawn) [Compound 82, 3-((4aS,6aS,6bR,13aR)-12-Amino-2,2,6a,6b,9,9,13a-heptamethyl-2,3,4,4a,5,6,6a,6b,7,8,8a,9,11,13,13a,13b,14,15b-octadecahydro-1H-chryseno[1,2-f]indazol-4-a-yl)-4-methyl-1H-pyrazol-5-ol] | 0.5 | 1 | – | –
8 | CC1(C)CC[C@]2(C(=O)O)CC[C@]3(C)C(=C(c4ccc(N)c(F)c4)CC4[C@@]5(C)Cc6c(n[nH]c6N)C(C)(C)C5CC[C@]43C)C2C1 (stereo partly drawn) [Example 31, (4aS,6aS,6bR,13aR)-12-Amino-15-(4-amino-3-fluorophenyl)-2,2,6a,6b,9,9,13a-heptamethyl-2,3,4,4a,5,6,6a,6b,7,8,8a,9,11,13,13a,13b,14,15b-octadecahydro-1H-chryseno[1,2-f]indazole-4-a-carboxylic acid] | 0.5 | 1 | – | –
9 | CC1(C)CC[C@]2(C(=O)O)CC[C@]3(C)C(=C(c4cccc(F)c4)CC4[C@@]5(C)Cc6c(n[nH]c6N)C(C)(C)[C@@H]5CC[C@]43C)[C@@H]2C1 (stereo partly drawn) [Example 17, (4aS,6aS,6bR,8aR,13aR,15bS)-12-Amino-15-(3-fluorophenyl)-2,2,6a,6b,9,9,13a-heptamethyl-2,3,4,4a,5,6,6a,6b,7,8,8a,9,11,13,13a,13b,14,15b-octadecahydro-1H-chryseno[1,2-f]indazole-4-a-carboxylic acid] | 0.5 | >2 | – | –
10 | CN(C)CCc1c([C@]23CCC(C)(C)CC2C2=CCC4[C@@]5(C)Cc6c(n[nH]c6N)C(C)(C)C5CC[C@@]4(C)[C@]2(C)CC3)n[nH]c1O (stereo partly drawn) [Compound 85, 3-((4aS,6aS,6bR,13aR)-12-Amino-2,2,6a,6b,9,9,13a-heptamethyl-2,3,4,4a,5,6,6a,6b,7,8,8a,9,11,13,13a,13b,14,15b-octadecahydro-1H-chryseno[1,2-f]indazol-4-a-yl)-4-(2-(dimethylamino)ethyl)-1H-pyrazol-5-ol] | 0.5 | 1 | – | –
11 | CC1(C)CC[C@]2(C(=O)O)CC[C@]3(C)C(=C(c4coc(CN5CCOCC5)c4)CC4[C@@]5(C)Cc6c(n[nH]c6N)C(C)(C)[C@@H]5CC[C@]43C)[C@@H]2C1 (stereo partly drawn) [Example 40, (4aS,6aS,6bR,8aR,13aR,15bS)-12-Amino-2,2,6a,6b,9,9,13a-heptamethyl-15-(5-(morpholinomethyl)furan-3-yl)-2,3,4,4a,5,6,6a,6b,7,8,8a,9,11,13,13a,13b,14,15b-octadecahydro-1H-chryseno[1,2-f]indazole-4-a-carboxylic acid] | 0.5 | 2 | – | –
12 | CC1(C)CC[C@]2(C(=O)O)CC[C@]3(C)C(=C(c4ccc(N5CCC(N)CC5)nc4)CC4[C@@]5(C)Cc6c(n[nH]c6N)C(C)(C)C5CC[C@]43C)C2C1 (stereo partly drawn) [Example 57, (4aS,6aS,6bR,13aR)-12-Amino-15-(6-(4-aminopiperidin-1-yl)pyridin-3-yl)-2,2,6a,6b,9,9,13a-heptamethyl-2,3,4,4a,5,6,6a,6b,7,8,8a,9,11,13,13a,13b,14,15b-octadecahydro-1H-chryseno[1,2-f]indazole-4-a-carboxylic acid] | >2 | 1 | – | –
13 | CN1CCN(c2ccc(C3=C4C5CC(C)(C)CC[C@]5(C(=O)O)CC[C@@]4(C)[C@]4(C)CCC5C(C)(C)c6n[nH]c(N)c6C[C@]5(C)C4C3)cn2)CC1 (stereo partly drawn) [Example 56, (4aS,6aS,6bR,13aR)-12-Amino-2,2,6a,6b,9,9,13a-heptamethyl-15-(6-(4-methylpiperazin-1-yl)pyridin-3-yl)-2,3,4,4a,5,6,6a,6b,7,8,8a,9,11,13,13a,13b,14,15b-octadecahydro-1H-chryseno[1,2-f]indazole-4-a-carboxylic acid] | 1 | 2 | – | –
